Measured values: US20260034119A1, “5-METHOXY-N,N-[…][…], THEIR […], AND METHODS FOR TREATMENT OF NEUROLOGICAL, […], AND SUBSTANCE USE DISORDERS” (priority 2023, published 2026)
“And” between values parts separate entries of the source, which are not always exact repeats. Identical values can stand only once. Like-named read-outs stand apart in the source and are kept apart here.

Legend:
5-HT2A [1] = target: T1, 5-HT2A (Homo sapiens, UniProt P28223)
5-HT2A [2] = target: T1, 5-HT2A; assay: cell-based
5-HT1A [3] = target: T2, 5-HT1A (Homo sapiens, UniProt P08908); assay: BRET signaling assay: 5-HT1A-mediated activation of heterotrimeric Gi1 (TRUPATH, HEK293-T); settings: for Efficacy as %5HT 5-HT1A BRET Gi1: Table 6, commercial ligands
human 5-HT1A [4] = target: T3, human 5-HT1A (Homo sapiens, UniProt P08908); assay: 5-HT1A-mediated cAMP reduction assay (GloSensor, HEK293-T); settings: for EC50: Table 2
T3 sequence (P08908 1-422): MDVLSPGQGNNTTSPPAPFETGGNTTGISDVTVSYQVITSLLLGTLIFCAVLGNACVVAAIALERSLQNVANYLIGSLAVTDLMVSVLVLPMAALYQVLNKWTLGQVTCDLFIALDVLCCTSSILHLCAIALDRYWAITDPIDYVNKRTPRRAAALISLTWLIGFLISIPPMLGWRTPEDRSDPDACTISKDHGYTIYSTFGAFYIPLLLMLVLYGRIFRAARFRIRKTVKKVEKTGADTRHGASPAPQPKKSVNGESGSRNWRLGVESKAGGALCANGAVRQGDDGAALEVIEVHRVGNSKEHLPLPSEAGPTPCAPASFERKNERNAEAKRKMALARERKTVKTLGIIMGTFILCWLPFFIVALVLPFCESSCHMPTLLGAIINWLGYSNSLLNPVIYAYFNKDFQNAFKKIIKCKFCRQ

5-HT1A [5] = target: T2, 5-HT1A; assay: cell-based
human 5-HT1A [6] = target: T3, human 5-HT1A; assay: cell-based
5-HT2B = 5-HT2B (Homo sapiens, UniProt P41595); assay: IP1 functional assay 5-HT2B; assay type: cell-based
5-HT2A [7] = target: T1, 5-HT2A; assay: cell-based; design: expressed in transfected cells; host or cells: HEK293-T
[8] = EC50 (nM) Mean BRET Gi1-1A, Table 2
[9] = EC50 (nM) Mean BRET Gq-2A, Table 2

T1 sequence (P28223 whole entry): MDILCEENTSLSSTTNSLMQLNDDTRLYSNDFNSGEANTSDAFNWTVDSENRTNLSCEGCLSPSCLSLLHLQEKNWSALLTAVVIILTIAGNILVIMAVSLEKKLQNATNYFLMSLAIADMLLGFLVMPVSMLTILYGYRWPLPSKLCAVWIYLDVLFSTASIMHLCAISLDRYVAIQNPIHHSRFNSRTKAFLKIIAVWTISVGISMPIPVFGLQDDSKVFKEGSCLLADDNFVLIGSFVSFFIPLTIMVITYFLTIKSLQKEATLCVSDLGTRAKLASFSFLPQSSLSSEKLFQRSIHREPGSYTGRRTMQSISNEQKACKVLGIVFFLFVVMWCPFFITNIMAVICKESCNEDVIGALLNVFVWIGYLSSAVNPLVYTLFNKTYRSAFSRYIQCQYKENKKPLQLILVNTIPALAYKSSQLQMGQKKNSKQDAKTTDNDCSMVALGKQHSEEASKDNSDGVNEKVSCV
5-HT2B, sequence (P41595 whole entry, species assumed): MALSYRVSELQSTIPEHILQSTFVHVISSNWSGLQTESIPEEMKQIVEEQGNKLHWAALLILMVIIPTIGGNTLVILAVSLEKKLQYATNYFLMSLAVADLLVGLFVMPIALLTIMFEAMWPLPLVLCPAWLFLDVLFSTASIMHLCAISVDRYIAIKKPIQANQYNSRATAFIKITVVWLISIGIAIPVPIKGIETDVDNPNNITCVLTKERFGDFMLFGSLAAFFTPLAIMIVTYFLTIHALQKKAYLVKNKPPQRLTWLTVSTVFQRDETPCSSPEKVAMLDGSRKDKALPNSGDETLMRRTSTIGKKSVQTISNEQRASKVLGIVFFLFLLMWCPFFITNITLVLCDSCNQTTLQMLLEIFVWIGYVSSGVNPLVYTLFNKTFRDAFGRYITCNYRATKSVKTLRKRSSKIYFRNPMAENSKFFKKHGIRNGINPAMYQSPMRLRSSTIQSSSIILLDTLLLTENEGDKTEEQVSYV

COc1cc(CCN)cc(OC)c1OC [Mescaline, reference compound]
efficacy at 5-HT2A (5-HT2A [1]): ~100 % of that of serotonin | relative potency at 5-HT1A and 5-HT2A (5-HT2A [1]; BRET, FIG. 33A): more potent at 5-HT2A | Efficacy as %5HT 5-HT2A BRET Gq (5-HT2A [1]; Table 6, commercial ligands): 92.6 %5HT | EC50 (5-HT2A [2]; EC50 (nM) 5-HT2A BRET Gq, Table 6, commercial ligands): 2400 nM | EC50 (5-HT1A [3]; EC50 (nM) 5-HT1A BRET Gi1, Table 6, commercial ligands): 19600 nM | Efficacy as %5HT 5-HT1A BRET Gi1 (5-HT1A [3]): 42.0 %5HT

COc1ccc2[nH]cc(CCN3CCCCC3)c2c1F [Compound 12]
EC50 (5-HT1A [3]; [8]): 8.97 nM | EC50 (human 5-HT1A [4]; EC50 (nM) Mean Gio(cAMP)-1A): 2.42 nM

COc1ccc2[nH]cc(CCN3CCCC3)c2c1F [Compound 35, 4-fluoro-5-methoxy-3-(2-(pyrrolidin-1-yl)ethyl)-1H-indole]
EC50 (5-HT2A [2]): 300 nM | EC50 (5-HT1A [5]): 0.372 nM | EC50 (human 5-HT1A [6]): 0.03 nM and 0.0282 nM

CCCN(C)CCc1c[nH]c2ccc(OC)c(F)c12 [Compound 4]
EC50 (5-HT2A [2]; [9]): 115 nM | EC50 (5-HT1A [3]; [8]): 3.06 nM | EC50 (human 5-HT1A [4]; pEC50 Gio(cAMP)-1A): 0.417 nM

C=CCN(C)CCc1c[nH]c2ccc(OC)cc12 [Compound 16]
EC50 (5-HT2A [2]): 24.5 nM and 25.7 nM | EC50 (5-HT1A [5]): 42.7 nM | EC50 (human 5-HT1A [6]): 9.64 nM

COc1ccc2[nH]cc(CCN3CC=CC3)c2c1 [Compound 21, 3-(2-(2,5-dihydro-1H-pyrrol-1-yl)ethyl)-5-methoxy-1H-indole]
EC50 (5-HT2A [2]): 9.91 nM | EC50 (5-HT1A [3]; Gi BRET EC50): 0.3 nM | further increase in potency at 5-HT1A (5-HT1A [3]; relative to 5-MeO-PyrT): ~8 fold | EC50 (5-HT1A [5]): 0.257 nM

COc1ccc2[nH]cc(CCN(C(C)C)C(C)C)c2c1F [Compound 9]
EC50 (5-HT2A [2]; [9]): 338 nM | EC50 (5-HT1A [3]; [8]): 35.8 nM | EC50 (human 5-HT1A [4]; EC50 (nM) Mean Gio(cAMP)-1A): 6 nM

CN(C)CCc1c[nH]c2ccc(O)c(F)c12 [Compound 16]
EC50 (5-HT2A [2]; [9]): 7.46 nM | EC50 (5-HT1A [3]; [8]): 1.13 nM | EC50 (human 5-HT1A [4]; pEC50 Gio(cAMP)-1A): 0.251 nM

N#Cc1ccc2[nH]cc(CCCCN3CCN(c4ccc5oc(C(N)=O)cc5c4)CC3)c2c1 [Vilazodone, vilazodone, reference compound]
activity at concentrations as low as (5-HT1A [3]; 5-HT1A Gi1 BRET): 30 pM | Emax (5-HT1A [3]; HEK-293T, read-out: Emax, 5-HT1A-mediated activation of Gi1 (BRET)): 97.4% | Efficacy as %5HT 5-HT1A BRET Gi1 (5-HT1A [3]): 97.4 %5HT | Efficacy as %5HT 5-HT1A cAMP (human 5-HT1A [4]; Table 6, commercial ligands): 110.5 %5HT

CN(C)CCc1c[nH]c2ccccc12 [DMT]
EC50 (5-HT2A [1]; Gq BRET, 5-HT2A WT): 94.4 nM | pEC50 (5-HT2A [1]; Gq BRET, 5-HT2A WT): (7.03,

CN(C)CCc1c[nH]c2cccc(O)c12 [psilocin, Psilocin]
efficacy at 5-HT2A (5-HT2A [1]): ~50 % of that of serotonin

COc1ccc2[nH]cc(CCN(C)C(C)C)c2c1F [Compound 7]
EC50 (5-HT2A [2]; [9]): 152 nM | EC50 (5-HT1A [3]; [8]): 14.2 nM | EC50 (human 5-HT1A [4]; EC50 (nM) Mean Gio(cAMP)-1A): 2.98 nM

CCCN(CC)CCc1c[nH]c2ccc(OC)c(F)c12 [Compound 5]
EC50 (5-HT2A [2]; [9]): 155 nM | EC50 (5-HT1A [3]; [8]): 0.95 nM | EC50 (human 5-HT1A [4]; pEC50 Gio(cAMP)-1A): 0.151 nM

CCCN(C)CCc1c[nH]c2ccc(OC)cc12 [Compound 10, 5-MeO-MPT]
EC50 (5-HT2B): 100 nM | Emax (5-HT2B; read-out: 5-HT2B (IP1) Emax (%5-HT), Table 3): 61% | EC50 (5-HT2A [7]): 79 nM | Emax (5-HT2A [7]; read-out: 5-HT2A (IP1) Emax (%5-HT)): 89%

COc1ccc2[nH]cc(CCN(C)C(C)C)c2c1F [Compound 31, N-(2-(4-fluoro-5-methoxy-1H-indol-3-yl)ethyl)-N-methylpropan-2-amine]
EC50 (5-HT2A [2]): 152 nM | EC50 (5-HT1A [5]): 14.2 nM | EC50 (human 5-HT1A [6]): 2.98 nM

COc1ccc2[nH]cc(CCN3CCCC3)c2c1 [Compound 18]
EC50 (5-HT2A [2]): 81.5 nM | EC50 (5-HT1A [5]): 2.13 nM | EC50 (human 5-HT1A [6]): 0.16 nM and 0.166 nM

COc1ccc2[nH]cc(CCN(C)C)c2c1F [Compound 1]
EC50 (5-HT2A [2]; [9]): 86.5 nM | EC50 (5-HT1A [3]; EC50 (nM) Mean BRET Gi1-1A): 1.77 nM | EC50 (human 5-HT1A [4]; pEC50 Gio(cAMP)-1A): 0.186 nM

CCCN(CCc1c[nH]c2ccc(OC)cc12)C(C)C [Compound 15]
EC50 (5-HT2A [2]): 51.2 nM | EC50 (5-HT1A [5]): 101 nM and 100 nM | EC50 (human 5-HT1A [6]): 26.7 nM

CCCN(C)CCc1c[nH]c2ccc(OC)cc12 [Compound 10]
EC50 (5-HT2A [2]): 28.3 nM | EC50 (5-HT1A [5]): 60.3 nM | EC50 (human 5-HT1A [6]): 18.6 nM

CCN(CC)CCc1c[nH]c2ccc(OC)c(F)c12 [Compound 3]
EC50 (5-HT2A [2]; [9]): 673 nM | EC50 (5-HT1A [3]; [8]): 3.18 nM | EC50 (human 5-HT1A [4]; EC50 (nM) Mean Gio(cAMP)-1A): 0.21 nM | EC50 (human 5-HT1A [4]; pEC50 Gio(cAMP)-1A): 0.204 nM

CCCN(CCC)CCc1c[nH]c2ccc(OC)c(F)c12 [Compound 6]
EC50 (5-HT2A [2]; [9]): 142 nM | EC50 (5-HT1A [3]; [8]): 3.7 nM | EC50 (human 5-HT1A [4]; EC50 (nM) Mean Gio(cAMP)-1A): 1.31 nM
